The structures appear in SMILES notation.

Three compounds from ChEMBL document CHEMBL2434896, “Carbonic anhydrase inhibitors. Synthesis of heterocyclic 4-substituted pyridine-3-sulfonamide derivatives and their inhibition of the human cytosolic isozymes I and II and transmembrane tumor-associated isozymes IX and XII” (Eur J Med Chem, 2013) can be followed below.

The experiment concerns the target Carbonic anhydrase 9 (Homo sapiens, UniProt Q16790). Nature of the experiment: Inhibition of human carbonic anhydrase 9 after 15 mins by stopped flow CO2 hydration assay.
Regarding `CCOC(=O)CCc1c(C)nn(-c2ccncc2S(N)(=O)=O)c1C`, the Ki (as a rule, a measure of affinity in units of concentration, obtained from inhibition or displacement) is 19.5 nM. In other words, the double-digit nanomolar range.

Regarding `Cc1cc(C)n(-c2ccncc2S(N)(=O)=O)n1`, affinity was put at a Ki of 24.8 nM.

In turn, `NS(=O)(=O)c1cnccc1N1CCN(c2ccc(F)cc2)CC1` yielded a Ki of 239 nM.
